# From ChEMBL document CHEMBL1132692, “Paclitaxel derivatives for targeted therapy of cancer: toward the development of smart taxanes” (J Med Chem, 1999)
# Key:
# NCI-H1299 [1] = assay: Inhibitory concentration against NCI-H1299 Human Nonsmall cell lung cancer cells after 24 hr exposure to the compound.; assay type: functional, cell-based; conditions: NCI-H1299, 24 h
# NCI-H1299 [2] = assay: Inhibitory concentration against NCI-H1299 Human Nonsmall cell lung cancer cells after 96h exposure to the compound.; assay type: functional, cell-based; conditions: NCI-H1299, 96 h
# [3] = target: T1, Bombesin receptor subtype-3 (Homo sapiens) (UniProt P32247); assay: Inhibition of [125I]Tyr3-BBN binding to NCI-H1299 cell line; assay type: cell-based; conditions: concentration not given here
# T1 sequence (whole entry): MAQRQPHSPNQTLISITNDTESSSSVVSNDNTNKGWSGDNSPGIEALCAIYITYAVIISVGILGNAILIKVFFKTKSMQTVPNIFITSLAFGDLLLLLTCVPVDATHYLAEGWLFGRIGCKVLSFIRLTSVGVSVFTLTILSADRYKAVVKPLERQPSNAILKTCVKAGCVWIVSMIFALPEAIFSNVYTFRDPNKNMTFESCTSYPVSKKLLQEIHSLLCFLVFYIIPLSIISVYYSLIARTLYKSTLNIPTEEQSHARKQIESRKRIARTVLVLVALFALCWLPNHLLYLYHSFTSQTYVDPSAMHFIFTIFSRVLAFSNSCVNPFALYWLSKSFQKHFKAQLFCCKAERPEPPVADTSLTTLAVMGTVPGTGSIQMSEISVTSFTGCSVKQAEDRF
# [4] = target: Gastrin-releasing peptide receptor (Mus musculus) (UniProt P21729); assay: Inhibition of [125I]Tyr3-BBN binding to BNR-11 cell line (Bombesin/gastrin-releasing peptide receptor); assay type: cell-based; conditions: concentration not given here
# Chain of Gastrin-releasing peptide receptor (Mus musculus) (P21729 whole entry): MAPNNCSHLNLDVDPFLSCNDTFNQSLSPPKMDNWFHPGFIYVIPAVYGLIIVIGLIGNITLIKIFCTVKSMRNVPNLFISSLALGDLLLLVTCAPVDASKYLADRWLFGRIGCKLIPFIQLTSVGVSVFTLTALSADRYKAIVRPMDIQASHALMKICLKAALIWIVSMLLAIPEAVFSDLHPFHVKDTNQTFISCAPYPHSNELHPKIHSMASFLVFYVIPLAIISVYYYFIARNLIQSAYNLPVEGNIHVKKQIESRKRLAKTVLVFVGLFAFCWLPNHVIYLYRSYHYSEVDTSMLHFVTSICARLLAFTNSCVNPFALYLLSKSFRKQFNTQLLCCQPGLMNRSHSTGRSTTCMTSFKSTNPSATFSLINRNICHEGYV
IC50 (NCI-H1299 [1]) [nM],IC50 (NCI-H1299 [2]) [nM],inhibition [3] [%],inhibition [4] [%],SMILES
35,15,–,–,CC(=O)O[C@H]1C(=O)[C@@]2(C)[C@H]([C@H](OC(=O)c3ccccc3)[C@]3(O)C[C@H](OC(=O)[C@H](O)[C@@H](NC(=O)c4ccccc4)c4ccccc4)C(C)=C1C3(C)C)[C@]1(OC(C)=O)CO[C@@H]1C[C@@H]2O [PACLITAXEL]
–,–,3.6,14,CC(C)C[C@H](NC(=O)[C@H](Cc1c[nH]cn1)NC(=O)CNC(=O)[C@@H](NC(=O)[C@H](C)NC(=O)[C@H](Cc1c[nH]c2ccccc12)NC(=O)[C@@H](N)CCC(N)=O)C(C)C)C(N)=O
